Laboratory results reported in patent US20090181896A1, “Use of Natriuretic Peptide Receptor Antagonists to Treat Ocular, Otic and Nasal Edemetous Conditions” (ALCON RESEARCH, LTD., priority 2006, published 2009).

Legend:
Format in all cases: cell-based
[1] = target: T1, Type-A natriuretic peptide receptor in human conjunctival epithelial cells (Chang cells) (Homo sapiens, UniProt P16066); assay: Natriuretic peptide-stimulated cGMP production (guanylyl cyclase activity, EIA) in human conjunctival epithelial cells (Chang cells); conditions: for Agonist character in words: cGMP production; for Intrinsic Activity (Emax; % Max. Response): cGMP production via type-A receptor
T1 construct: the most relevant cells are Chang cells (Clone 1-5C-4 Wong-Kilbourne Derivative); These cells were obtained from ATCC; host or cells: Chang cells (Clone 1-5C-4 Wong-Kilbourne Derivative), human conjunctival epithelial cells
T1 sequence (P16066 33-1061): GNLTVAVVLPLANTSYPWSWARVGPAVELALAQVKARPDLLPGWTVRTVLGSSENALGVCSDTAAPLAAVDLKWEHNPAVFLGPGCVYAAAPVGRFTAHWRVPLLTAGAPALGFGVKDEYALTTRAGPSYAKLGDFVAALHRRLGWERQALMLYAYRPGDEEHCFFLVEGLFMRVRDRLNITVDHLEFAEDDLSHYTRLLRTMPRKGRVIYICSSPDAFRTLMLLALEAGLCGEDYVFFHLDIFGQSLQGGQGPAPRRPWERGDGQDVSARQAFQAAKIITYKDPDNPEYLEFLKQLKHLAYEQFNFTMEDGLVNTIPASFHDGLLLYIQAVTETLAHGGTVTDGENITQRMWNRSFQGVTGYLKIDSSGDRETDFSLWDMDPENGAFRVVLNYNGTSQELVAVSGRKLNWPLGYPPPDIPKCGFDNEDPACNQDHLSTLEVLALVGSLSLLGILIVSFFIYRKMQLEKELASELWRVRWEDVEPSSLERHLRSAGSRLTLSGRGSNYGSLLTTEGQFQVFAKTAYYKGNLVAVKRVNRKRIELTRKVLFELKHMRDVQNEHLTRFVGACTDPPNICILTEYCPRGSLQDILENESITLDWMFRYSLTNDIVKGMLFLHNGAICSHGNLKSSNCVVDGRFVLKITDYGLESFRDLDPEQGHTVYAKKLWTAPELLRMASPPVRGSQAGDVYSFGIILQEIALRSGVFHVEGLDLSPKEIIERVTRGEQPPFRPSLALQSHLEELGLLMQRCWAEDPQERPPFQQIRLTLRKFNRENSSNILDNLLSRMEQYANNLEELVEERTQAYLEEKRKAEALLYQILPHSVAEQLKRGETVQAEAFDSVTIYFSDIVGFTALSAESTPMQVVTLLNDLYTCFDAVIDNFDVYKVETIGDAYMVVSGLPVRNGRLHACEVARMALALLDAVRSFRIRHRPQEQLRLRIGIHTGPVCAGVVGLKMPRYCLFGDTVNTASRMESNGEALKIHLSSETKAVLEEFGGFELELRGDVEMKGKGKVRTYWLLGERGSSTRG
Protocol: These cells were obtained from ATCC (Manassas, Va.) and cultured in medium 199, containing 10% fetal bovine serum and […] Gentamicin. (obtained from Gibco/Invitrogen; Carlsbad, Calif.).
Cells were seeded in 48-wells culture plates. On reaching confluence, the cells were rinsed twice with 0.5 ml Dulbeco's modified Eagle's medium (DMEM)/F-12. […] Natriuretic peptides (American Peptide Co. Inc., Sunnyvale, Calif.; Peninsula Labs. San Carlos, Calif.) were then added at the end of this period and the reaction was allowed to proceed for another 15 minutes at 23° C. After aspiration of the reaction medium, ice cold 0.1 M acetic acid ([…], pH 3.5) was added for the termination of cGMP synthesis and cell lysis. Finally, ice-cold 0.1 M sodium acetate ([…], pH 11.5-12.0) was added to neutralize the samples before analysis of cGMP by an enzyme immunoassay (EIA) kit. cGMP production in the cells was measured using the EIA kit purchased from Amersham Pharmacia Biotech (Piscataway, N.J.). This assay was conducted according to the package insert in an automated manner using a robotic workstation (Biomek 2000; Beckman Instrument, Fullerton, Calif.) (Sharif et al. Characterization of the ocular anti-allergic and anti-histaminic effects of Olopatadine (AL-4943A), a novel drug for treating ocular allergic diseases. J. Pharmacology & Experimental Therapeutics 278, 1251-1260, 1996; Crider et al. Pharmacological characterization of serotonin receptor (5HT7) stimulating cAMP production in human corneal epithelial cells. Invest. Ophthalmol. Vis. Sci. 44: 4837-4844, 2003). Data were analyzed using a non-linear, iterative curve-fitting computer program (IDBS, Surrey, UK) and Origin software package (Microcal Software, Inc., Northampton, Mass.) (Sharif et al. 1996; Crider et al. 2003).

[2] = target: T2, Type-B natriuretic peptide receptor in human corneal epithelial cells (Homo sapiens, UniProt P20594); assay: Natriuretic peptide-stimulated cGMP production (guanylyl cyclase activity, EIA) in human corneal epithelial cells; conditions: cGMP production via type-B receptor
T2 construct: primary human corneal epithelial cells (P-CEPI) were isolated from human donor eyes; endogenous in cells; host or cells: primary human corneal epithelial cells (P-CEPI) and SV40-immortalized human corneal epithelial cells (CEPI-17-CL4)
T2 sequence (P20594 23-1047): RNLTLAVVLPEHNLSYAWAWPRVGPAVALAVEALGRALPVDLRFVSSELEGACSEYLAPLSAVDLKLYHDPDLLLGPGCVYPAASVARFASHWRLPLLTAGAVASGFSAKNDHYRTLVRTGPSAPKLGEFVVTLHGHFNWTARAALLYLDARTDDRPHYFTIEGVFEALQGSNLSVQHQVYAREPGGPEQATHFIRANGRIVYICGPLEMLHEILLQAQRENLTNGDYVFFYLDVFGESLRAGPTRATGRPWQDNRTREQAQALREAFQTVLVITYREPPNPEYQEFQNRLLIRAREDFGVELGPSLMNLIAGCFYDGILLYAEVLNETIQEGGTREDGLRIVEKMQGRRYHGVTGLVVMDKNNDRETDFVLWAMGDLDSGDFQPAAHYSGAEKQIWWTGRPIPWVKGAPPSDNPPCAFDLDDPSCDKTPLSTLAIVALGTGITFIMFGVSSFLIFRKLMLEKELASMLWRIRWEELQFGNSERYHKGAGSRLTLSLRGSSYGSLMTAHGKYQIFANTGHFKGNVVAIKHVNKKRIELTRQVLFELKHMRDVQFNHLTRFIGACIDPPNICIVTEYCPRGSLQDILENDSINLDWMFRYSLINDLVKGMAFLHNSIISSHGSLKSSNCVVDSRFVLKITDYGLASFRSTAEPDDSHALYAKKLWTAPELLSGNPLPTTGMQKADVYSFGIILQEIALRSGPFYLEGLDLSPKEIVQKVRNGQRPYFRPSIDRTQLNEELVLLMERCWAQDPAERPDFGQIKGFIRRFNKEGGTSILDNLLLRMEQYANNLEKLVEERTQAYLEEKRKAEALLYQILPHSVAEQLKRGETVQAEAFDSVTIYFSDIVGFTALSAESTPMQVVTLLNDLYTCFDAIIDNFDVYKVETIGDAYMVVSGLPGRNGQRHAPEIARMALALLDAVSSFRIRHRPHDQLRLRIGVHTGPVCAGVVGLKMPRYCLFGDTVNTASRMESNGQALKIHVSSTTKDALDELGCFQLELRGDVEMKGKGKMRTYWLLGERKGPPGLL
Protocol: Thus, primary human corneal epithelial cells (P-CEPI) were isolated from human donor eyes ≦24 hr postmortem and were cultured in EpiLife medium (Cascade Biologics, Portland, Oreg.) containing 1% human corneal growth supplement, 100 u/ml penicillin G, 100 mg/ml streptomycin sulfate. Culture plates were coated with fibronectin to help the cells adhere to the bottom of the plates. […]
In brief, compounds of interest were diluted in ethanol so that the final ethanol concentration was 1%, a concentration well tolerated by the cells. […] Finally, ice-cold 0.1 M sodium acetate (220 ml, pH 11.5-12.0) was added to neutralize the samples before analysis of cGMP by an enzyme immunoassay (EIA) kit. cGMP production in the cells was measured using the EIA kit purchased from Amersham Pharmacia Biotech (Piscataway, N.J.). […] Data were analyzed using a non-linear, iterative curve-fitting computer program (IDBS, Surrey, UK) and Origin software package (Microcal Software, Inc., Northampton, Mass.) (Sharif et al. 1996; Crider et al. 2003). […]

[3] = target: T3, type-B natriuretic peptide receptor in immortalized human corneal epithelial (CEPI-17-CL4) cells (Homo sapiens, UniProt P20594); assay: Antagonism of CNP fragment-induced cGMP production in immortalized human corneal epithelial (CEPI-17-CL4) cells; conditions: mean ± SEM
T3 construct: primary human corneal epithelial cells (P-CEPI) were isolated from human donor eyes; endogenous in cells; host or cells: primary human corneal epithelial cells (P-CEPI) and SV40-immortalized human corneal epithelial cells (CEPI-17-CL4)
T3 sequence (P20594 23-1047): T2 sequence (P20594 23-1047)

Row | Compound | Agonist character in words [1] | Intrinsic Activity (Emax; % Max. Response) [1] [%] | Intrinsic Activity (Emax; % Max. Response) [2] [%] | Ki [3] [µM]
1 | brain natriuretic peptide [BNP] | potent full agonists | 94 | 50.2 | –
2 | O=C1Nc2ccccc2C1=O [isatin] | – | – | – | 18 ± 4
3 | C-type natriuretic peptide [CNP] | weak partial agonist | 26 | 100 | –
